In patent US20240369576A1, “ASSAYS FOR ALPHA-DYSTROGLYCAN GLYCOSYLATION AND METHODS FOR USING SAME” (ML Bio Solutions Inc., priority 2023, published 2024):
Entries after “also recorded” stand apart in the source; their conditions may differ.

How the values were obtained:
[1] = system: patients with LGMD2I/R9; test: Open label Phase 2 study of ribitol in LGMD2I/R9: safety and tolerability; assay type: in vivo, human
Text: Objectives: The Phase 2 study is intended to explore the safety and tolerability of ribitol. Additionally, the feasibility and usefulness of clinical efficacy and pharmacodynamic (PD) assessments in patients with LGMD2I receiving ascending doses of ribitol will be investigated.
Methods: This study is an open label dose escalation study of patients with LGMD2I/R9. Part 1 of the study involved three dose cohorts (6 g QD, 6 g BID and 12 g BID) treated for 3 months. During Parts 2 (target maximal dose) and 3 (ongoing OLE), all patients received 12 g BID, dose adjusted for lower weight.
FIG. 17 schematically illustrates the details of the clinical study. Briefly, the study includes 3 parts: a 90 day dose escalation phase (Part 1), a 90 day maximum dose phase (Part 2), and a 24 month long term extension phase (Part 3). In Part 1, 14 total patients are studied across three cohorts (6 g QD, 6 g BID, and 12 g BID ribitol). After Part 1, all patients transition to the highest dose, 12 g BID ribitol. Dosing adjustments in Part 2 were as follows: for patients with weight >70 kg: 12 g BID; for patients with weight between 50-70 kg: 9 g BID; and for patients with weight between 30-50 kg: 6 g BID. Dosing adjustments in Part 3 were as follows: for patients with weight >50 kg: 12 g BID; and for patients with weight between 30-50 kg: 9 g BID.
Key inclusion criteria for the study include age between 12-55 years at enrollment; genetically confirmed LGMD2I/R9 diagnosis; body weight of at least 30 kg; and ability to complete a […] walk test in <12 seconds unaided for moderate disease, or unable to complete the 10MWT for severe disease.

[2] = system: serum creatine kinase (CK); test: Open label Phase 2 study of ribitol in LGMD2I/R9: serum creatine kinase; assay type: in vivo, human
Text: (§1) Methods: This study is an open label dose escalation study of patients with LGMD2I/R9. Part 1 of the study involved three dose cohorts (6 g QD, 6 g BID and 12 g BID) treated for 3 months. During Parts 2 (target maximal dose) and 3 (ongoing OLE), all patients received 12 g BID, dose adjusted for lower weight. FIG. 17 schematically illustrates the details of the clinical study. Briefly, the study includes 3 parts: a 90 day dose escalation phase (Part 1), a 90 day maximum dose phase (Part 2), and a 24 month long term extension phase (Part 3). In Part 1, 14 total patients are studied across three cohorts (6 g QD, 6 g BID, and 12 g BID ribitol). After Part 1, all patients transition to the highest dose, 12 g BID ribitol. Dosing adjustments in Part 2 were as follows: for patients with weight >70 kg: 12 g BID; for patients with weight between 50-70 kg: 9 g BID; and for patients with weight between 30-50 kg: 6 g BID. Dosing adjustments in Part 3 were as follows: for patients with weight >50 kg: 12 g BID; and for patients with weight between 30-50 kg: 9 g BID. Key endpoints for the study include NSAD; 10 or 100 meter walk test; FVC; PUL2.0; glycosylated αDG levels; and serum creatine kinase (CK).

[3] = system: alpha-DG glycosylation in LGMD2I mouse models; conditions: cited from earlier work
[4] = system: patients with LGMD2I/R9; test: Open label Phase 2 study of ribitol in LGMD2I/R9: ambulatory and clinical measures (NSAD, 10MWT, 100MTT); assay type: in vivo, human; conditions: following 15 months of ribitol treatment, vs natural history decline
Text: as §1, with “Key inclusion criteria for the study include age between 12-55 years at enrollment; genetically confirmed LGMD2I/R9 diagnosis; body weight of at least 30 kg; and ability to complete a […] walk test in <12 seconds unaided for moderate disease, or unable to complete the 10MWT for severe disease. Key” for “Key”

[5] = system: αDG glycosylation in P448L mutant FKRP mice; test: Multiplexed Western blot of total and glycosylated αDG in muscle of P448L mutant FKRP mice treated with 5% Ribitol; assay type: in vivo, mouse; conditions: 5% Ribitol treated P448L mice vs untreated P448L mice, heart muscle and TA lysates
Description: Murine Mouse Tissue: Murine muscle tissue samples from healthy, [MUT], and […] mutant mice were stored at -80° C. until analysis. Tissue Processing: Tissue samples were processed using a TissueLyzer IITM (Qiagen®). Approximately 250 milligrams (mg) of tissue was placed in a 2 mL microtube with a steel bead and 1 mL of Radioimmunoprecipitation assay buffer (RIPA) buffer supplemented with protease and phosphatase inhibitors. The microtubes were subjected to three cycles of disruption (2 minutes at 25 Hertz (Hz)) in the TissueLyzer IITM. Lysates were clarified by centrifugation and the supernatant was transferred to fresh tubes and protein concentration in lysate was determined using a BCA assay (Pierce®). […] The membrane was visualized on an Odyssey CLxTM imager (LiCorTM) and intensities of the 700 and 800 nm channels were recorded. […] Signal intensities were normalized to total protein and the ratio of 700 nm normalized signal/800 nm normalized signal was determined. Linear fits were assessed where applicable using the linear regression function of PrismTM. Statistical significance was determined using an unpaired t-test using PrismTM (e.g., using the p-value for the parameters slope and intercept). StainFree gel image is quantitated using ImageLabTM software to analyze the image from the ChemiDocTM Imaging System. […] Linear fits were assessed were applicable using a linear regression function. […]

[6] = system: glycosylated αDG; test: Open label Phase 2 study of ribitol in LGMD2I/R9: glycosylated αDG in tibialis anterior biopsies by Western blot; assay type: in vivo, human
Description: Tissue Lysis and sample preparation: Tissue samples were processed in lysis buffer, supplemented with protease inhibitors. Total protein in lysate was determined by BCA (Thermo Fisher) for RIPA and protein 660 kit (Thermo Fisher) for SDS-Urea and tested at 60 μg for CP Heterozygous samples and 40 μg for Homozygous samples. Differential protein loading is used for different patients to compensate for patient deficits in glycosylated αDG. […] Loading additional protein helps compensate for this deficiency and allows the assay to detect lower-level ranges. This is further stratified by patient genotype: more severe patients require greater protein loading. Western Blotting: For detection of target proteins αDG-Total and αDG-Glycan, membrane was probed simultaneously with primary antibodies AF6868 alpha Dystroglycan (R&D Systems) and IIH6C4 alpha Dystroglycan (Millipore), followed by fluorescent secondary antibodies IR800CW Mouse Anti-Sheep and IR680 Goat Anti-Mouse secondary antibodies (LiCor). The membrane was visualized in Odyssey CLx imager (LiCor) and intensities of the 700 (αDG-Glycan, red bands) and 800 (αDG-Total, green bands) nm channels were recorded. […] Here, amounts of glycosylated and total αDG are determined using standard curves, and an interpolated ratio is computed by dividing the amount of glycosylated αDG to the amount of total αDG. Data Analysis: Integration boxes were drawn using Image Studio software with specific dimensions over molecular weight range for standards, test articles and control samples. Data analysis was done in Excel (Microsoft). […] Healthy positive control (HPC) at 10 μg was deployed to monitor assay performance. […] FIG. 12 schematically illustrates a workflow for the Western Blot method. Briefly, biopsies are collected from a subject at a desired timepoint and homogenized. Gel electrophoresis is performed, followed by membrane transfer and blocking. Sample is incubated with the primary antibody followed by the secondary antibody. Detection and analysis are subsequently performed. […] A broader region of 70-260 kDa was used in prior iterations of the assay, including that described in Example 2 herein. […] Multiple sections of a single healthy donor TA biopsy sample are homogenized and the resulting lysate is pooled together and stored in single use aliquots at −80° C. These aliquots are used to generate a standard curve which is used in every assay. In addition, a quality control of 10 μg lysate is used to assess assay performance by measuring interpolatability to the standard curve. Methods: This study is an open label dose escalation study of patients with LGMD2I/R9. Part 1 of the study involved three dose cohorts (6 g QD, 6 g BID and 12 g BID) treated for 3 months. During Parts 2 (target maximal dose) and 3 (ongoing OLE), all patients received 12 g BID, dose adjusted for lower weight. FIG. 17 schematically illustrates the details of the clinical study. Briefly, the study includes 3 parts: a 90 day dose escalation phase (Part 1), a 90 day maximum dose phase (Part 2), and a 24 month long term extension phase (Part 3). In Part 1, 14 total patients are studied across three cohorts (6 g QD, 6 g BID, and 12 g BID ribitol). After Part 1, all patients transition to the highest dose, 12 g BID ribitol. Dosing adjustments in Part 2 were as follows: for patients with weight >70 kg: 12 g BID; for patients with weight between 50-70 kg: 9 g BID; and for patients with weight between 30-50 kg: 6 g BID.

[7] = maximum change over 3-15 months of treatment, FIG. 19

Compound: OC[C@@H](O)[C@@H](O)[C@@H](O)CO [ribitol, (2R,3S,4S)-Pentane-1,2,3,4,5-pentol]
- adverse events leading to discontinuation or interruption in therapy ([1]; 15 months of treatment): No adverse event led to a discontinuation or interruption in therapy
- diarrhea, possibly or probably treatment-related ([1]; 75% grade 1, 25% grade 2): 6 incidents
- treatment-related serious adverse events, dose limiting toxicities or discontinuations ([1]; across a range of ribitol dose levels): no observed treatment-related serious adverse events, dose limiting toxicities or discontinuations
- nausea, possibly or probably treatment-related ([1]; both grade 1): 2 incidents
- vomiting, possibly or probably treatment-related ([1]; both grade 1): 2 incidents
- adverse events possibly or probably related to ribitol treatment ([1]; during the course of the study): 12
- adverse events recorded ([1]; during the course of the study, 14 patients): 136
- dehydration, possibly or probably treatment-related ([1]; grade 1): 1 incident
- dyspepsia, possibly or probably treatment-related ([1]; grade 1): 1 incident
- gastroenteritis, possibly or probably treatment-related ([1]; grade 2): 1 incident
- headaches, possibly or probably treatment-related ([1]; grade 2): 1 incident
- tolerability ([1]; over 15 months of treatment): well-tolerated; also recorded: well tolerated
- severe adverse events ([1]; unrelated to the treatment): 3
- change in serum CK ([2]; after 3 months of treatment, FIG. 20): notable change
- sustained reduction in serum creatine kinase (CK) ([2]; over 15 months of ribitol treatment): > 75%
- alpha-DG glycosylation [3]: increase
- 10MWT velocity [4]: improvements
- 100MTT [4]: improvements
- NSAD [4]: improvements
- 10MWT velocity ([4]; listed as Ribitol): improvement
- 100MTT ([4]; listed as Ribitol): improvement
- NSAD ([4]; listed as Ribitol): improvement
- αDG expression (total αDG signal, ~50-250 kDa) ([5]; FIG. 6B): increased
- ratio of glycosylated αDG to total αDG ([5]; FIG. 6C): increased
- change in glycosylated αDG vs baseline ([6]; LGMD2I/R9 patients, oral ribitol 6 g QD to 12 g BID, after 90 days, sustained over 15 months): approximate doubling; also recorded: approximately double
- levels of glycosylated αDG at 3 months ([6]; Phase 2, 3 months, sustained over 15 months): increased
- change in glycosylated αDG by genotype ([6]; both L276I homozygous and other FKRP genotype LGMD2I/R9 patients): Approximate doubling
- patients with a ≥100% increase (doubling) in glycosylated αDG levels vs pre-treatment [6, 7]: 10 of 14
- patients with increased glycosylated αDG levels vs pre-treatment baseline [6, 7]: 13 of 14
- αDG glycosylation in LGMD2I/R9 muscle biopsies ([6]; treatment with ribitol, FIGS. 13A-13B): dramatically increases
